Tested on: Alternaria solani
Experiment: Alternaria solani (early blight of tomato/potato) in vitro test, radial growth on potato dextrose agar
Type: cell-based
Conditions: 168 h, 300 ppm in potato dextrose agar, 25° C., 60% relative humidity, seven days, read-out: control compared to the untreated check (radial growth)

SMILES	inhibition of growth at 300 ppm [%]
CCN(C)C=Nc1cc(C)cc(N(C)c2ncccc2C)c1Cl [Compound 108, N′-(2-chloro-5-methyl-3-(methyl(3-methylpyridin-2-yl)amino)phenyl)-N-ethyl-N-methylformimidamide]	≥ 70
CCc1cccc(Nc2cc(F)cc(N=CN(C)CC)c2C)n1 [Compound 227, N-ethyl-N′-(3-((6-ethylpyridin-2-yl)amino)-5-fluoro-2-methylphenyl)-N-methylformimidamide]	≥ 70
CCN(C)C=Nc1cc(C)cc(Nc2ccc3ncsc3c2)c1Cl [Compound 228, N′-(3-(benzo[d]thiazol-6-ylamino)-2-chloro-5-methylphenyl)-N-ethyl-N-methylformimidamide]	≥ 70
CCN(C)C=Nc1cc(C)cc(N(C)c2cc(F)cc(F)c2)c1Cl [Compound 74, N′-(2-chloro-3-((3,5-difluorophenyl)(methyl)amino)-5-methylphenyl)-N-ethyl-N-methylformimidamide]	≥ 70
CCN(C)C=Nc1cc(OC)cc(Nc2ccc(OC)c(F)c2)c1C [Compound 269, N-ethyl-N′-(3-((3-fluoro-4-methoxyphenyl)amino)-5-methoxy-2-methylphenyl)-N-methylformimidamide]	≥ 70
CCN(C)C=Nc1cc(OC)cc(Nc2ccccc2OC)c1C [Compound 268, N-ethyl-N′-(5-methoxy-3-((2-methoxyphenyl)amino)-2-methylphenyl)-N-methylformimidamide]	≥ 70

Tested on: Pyricularia oryzae
Experiment: microbe, parasite or virus in culture
Type: cell-based
Conditions: 168 h, read-out: control compared to the untreated check (radial growth)

SMILES	inhibition of growth at 300 ppm [%]
CCN(C)C=Nc1cc(C)cc(N(C)c2ncccc2C)c1Cl [Compound 108, N′-(2-chloro-5-methyl-3-(methyl(3-methylpyridin-2-yl)amino)phenyl)-N-ethyl-N-methylformimidamide]	≥ 70
CCN(C)C=Nc1cc(Cl)cc(Cc2cccc(OC(F)(F)F)c2)c1C [Compound 251, N′-(5-chloro-2-methyl-3-(3-(trifluoromethoxy)benzyl)phenyl)-N-ethyl-N-methylformimidamide]	≥ 70
CCN(C)C=Nc1cc(C)cc(Nc2cc(F)cc(Cl)c2)c1Cl [Compound 97, N′-(2-chloro-3-((3-chloro-5-fluorophenyl)amino)-5-methylphenyl)-N-ethyl-N-methylformimidamide]	≥ 70
CCN(C)C=Nc1cc(C)cc(N(C)c2ccccn2)c1Cl [Compound 107, N′-(2-chloro-5-methyl-3-(methyl(pyridin-2-yl)amino)phenyl)-N-ethyl-N-methylformimidamide]	≥ 70
CCN(C)C=Nc1cc(C)cc(Nc2ccc3ncsc3c2)c1Cl [Compound 228, N′-(3-(benzo[d]thiazol-6-ylamino)-2-chloro-5-methylphenyl)-N-ethyl-N-methylformimidamide]	≥ 70
CCN(C)C=Nc1cc(C#N)cc(Cc2cccc(C#N)c2)c1C [Compound 309, N′-(5-cyano-3-(3-cyanobenzyl)-2-methylphenyl)-N-ethyl-N-methylformimidamide]	≥ 70
CCN(C)C=Nc1cc(Cl)cc(N(C)c2ccc(OC)c(F)c2)c1C [Compound 267, N′-(5-chloro-3-((3-fluoro-4-methoxyphenyl)(methyl)amino)-2-methylphenyl)-N-ethyl-N-methylformimidamide]	≥ 70
CCN(C)C=Nc1cc(Cl)cc(Cc2ccc(C(F)(F)F)cc2)c1C [Compound 249, N′-(5-chloro-2-methyl-3-(4-(trifluoromethyl)benzyl)phenyl)-N-ethyl-N-methylformimidamide]	≥ 70
CCN(C)C=Nc1cc(Cl)cc(Cc2cccc(C#N)c2)c1C [Compound 250, N′-(5-chloro-3-(3-cyanobenzyl)-2-methylphenyl)-N-ethyl-N-methylformimidamide]	≥ 70
CCN(C)C=Nc1cc(C#N)cc(Cc2cccc(Br)c2)c1C [Compound 313, N′-(3-(3-bromobenzyl)-5-cyano-2-methylphenyl)-N-ethyl-N-methylformimidamide]	≥ 70
CCN(C)C=Nc1cc(Cl)cc(Cc2ccc(SC)cc2)c1C [Compound 252, N′-(5-chloro-2-methyl-3-(4-(methylthio)benzyl)phenyl)-N-ethyl-N-methylformimidamide]	≥ 70
CCN(C)C=Nc1cc(Cl)cc(Cc2cccnc2)c1C [Compound 248, N′-(5-chloro-2-methyl-3-(pyridin-3-ylmethyl)phenyl)-N-ethyl-N-methylformimidamide]	≥ 70
